Measurements from PMC9504419, “Multipotent Cholinesterase Inhibitors for the Treatment of Alzheimer’s Disease: Synthesis, Biological Analysis and Molecular Docking Study of Benzimidazole-Based Thiazole Derivatives” (Molecules, 2022).
Like-named read-outs stand apart in the source and are kept apart here.

Assays:
brain AChE = details: similar degree of brain AChE inhibition; cited from earlier work
AChE = AChE (Homo sapiens, UniProt P22303); assay: biochemical; type: biochemical; details: for Selectivity Index: AChE and BuChE IC50 values
Chain of AChE (P22303 32-614): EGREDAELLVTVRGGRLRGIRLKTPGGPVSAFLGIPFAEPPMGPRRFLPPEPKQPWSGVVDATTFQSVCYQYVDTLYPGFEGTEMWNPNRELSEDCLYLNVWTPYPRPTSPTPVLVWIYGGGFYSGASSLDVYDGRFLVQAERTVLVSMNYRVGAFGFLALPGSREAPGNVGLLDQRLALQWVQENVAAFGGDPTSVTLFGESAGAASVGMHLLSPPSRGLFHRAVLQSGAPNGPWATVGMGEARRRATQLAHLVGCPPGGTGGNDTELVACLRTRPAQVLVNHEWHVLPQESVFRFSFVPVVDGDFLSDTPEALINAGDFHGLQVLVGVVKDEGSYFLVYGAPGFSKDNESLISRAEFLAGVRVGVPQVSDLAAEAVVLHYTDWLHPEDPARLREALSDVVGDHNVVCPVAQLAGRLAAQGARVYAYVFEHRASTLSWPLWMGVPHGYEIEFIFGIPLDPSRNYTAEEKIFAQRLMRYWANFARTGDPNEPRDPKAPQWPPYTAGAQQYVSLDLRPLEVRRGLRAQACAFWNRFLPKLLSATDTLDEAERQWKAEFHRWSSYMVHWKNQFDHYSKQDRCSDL
Protocol: (§1) The inhibition of AChE and BChE was determined using a method described earlier. Briefly, the stock solutions (1 mg/mL) of test analogues were prepared using DMSO. The working solutions (1–100 μg/mL) were prepared using serial dilutions (a serial dilution means a series of diluted solutions, e.g., 0.1 mg/mL, 0.2 mg/mL and so on; the solutions contained 5% DMSO and 95% water). The various concentrations of test compounds (10 μL) were pre-incubated with sodium phosphate buffer (0.1 M; pH 8.0; 150 μL) and AChE (0.1 U/mL; 20 μL) for 15 min at 25 °C. The reaction was initiated via the addition of DTNB (1 mM; 10 μL) and […] (1 mM; 10 μL). The mixture of reaction was mixed using a cyclomixer and incubated for 10 min at 25 °C. The absorbance was measured using a microplate reader at a 410 nm wavelength against the blank reading containing 10μL DMSO instead of the test compound (the solution contained 5% DMSO and 95% water).
(§2) % Inhibition = (Absorbance of control—Absorbance of compound)/Absorbance of control × 100

BuChE = BuChE (Homo sapiens, UniProt P06276); assay: biochemical; type: biochemical
Chain of BuChE (P06276 29-602): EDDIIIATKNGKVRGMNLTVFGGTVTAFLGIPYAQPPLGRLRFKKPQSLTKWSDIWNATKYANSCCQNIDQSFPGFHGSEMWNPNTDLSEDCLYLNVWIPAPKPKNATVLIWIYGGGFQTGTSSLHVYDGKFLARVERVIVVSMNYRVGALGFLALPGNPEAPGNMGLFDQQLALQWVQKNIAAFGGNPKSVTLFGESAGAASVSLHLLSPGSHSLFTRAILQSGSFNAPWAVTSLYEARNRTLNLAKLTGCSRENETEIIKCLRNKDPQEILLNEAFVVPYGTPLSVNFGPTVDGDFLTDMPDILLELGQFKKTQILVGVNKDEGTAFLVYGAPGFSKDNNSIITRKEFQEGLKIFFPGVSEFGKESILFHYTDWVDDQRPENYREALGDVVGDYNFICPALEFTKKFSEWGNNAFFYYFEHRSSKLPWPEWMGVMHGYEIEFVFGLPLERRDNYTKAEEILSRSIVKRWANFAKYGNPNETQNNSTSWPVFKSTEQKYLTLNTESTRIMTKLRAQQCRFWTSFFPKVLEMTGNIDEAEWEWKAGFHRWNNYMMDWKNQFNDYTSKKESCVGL
Protocol: as §1, §2

Row | Structure (SMILES) | doses needed, times greater than those of Donepezil (brain AChE) | IC50 (AChE; read-out: IC50AChE) [µM] | IC50 (BuChE; read-out: IC50BuChE) [µM] | Selectivity Index (AChE) | IC50 (AChE) [µM] | IC50 (BuChE) [µM] | IC50AChE (AChE) | IC50BuChE (BuChE)
1 | COc1ccc2c3c1O[C@H]1C[C@@H](O)C=C[C@@]31CCN(C)C2 [Galantamine] | 3–15 times | – | – | – | – | – | – | –
2 | O=[N+]([O-])c1cc(O)c(Cl)cc1-c1csc(N/N=C(/CSc2nc3ccccc3[nH]2)c2ccccc2O)n1 [compound 2, (E)-4-(2-(2-(2-((1H-benzo[d]imidazol-2-yl)thio)-1-(2-hydroxyphenyl)ethylidene)hydrazinyl)thiazol-4-yl)-2-chloro-5-nitrophenol] | – | 2.3 ± 0.1 | 3.2 ± 0.1 | – | – | – | – | –
3 | Oc1ccc(-c2csc(N/N=C(/CSc3nc4ccccc4[nH]3)c3ccccc3)n2)cc1 [compound 3, (E)-4-(2-(2-(2-((1H-benzo[d]imidazol-2-yl)thio)-1-phenylethylidene) hydrazinyl)thiazol-4-yl)phenol] | – | 0.8 ± 0.1 | 1.8 ± 0.1 | 2.25 | – | – | – | –
4 | COc1cccc(-c2csc(N/N=C(/CSc3nc4ccccc4[nH]3)c3ccccc3)n2)c1 [compound 4, (E)-2-(2-(2-((1H-benzo[d]imidazol-2-yl)thio)-1-phenylethylidene)hydrazinyl)-4-(3-methoxyphenyl)thiazole] | – | 3.5 ± 0.1 | 5.3 ± 0.1 | 1.51 | – | – | – | –
5 | Cc1ccc(-c2csc(N/N=C(/CSc3nc4ccccc4[nH]3)c3ccccc3)n2)cc1 [compound 5, (E)-2-(2-(2-((1H-benzo[d]imidazol-2-yl)thio)-1-phenylethylidene)hydrazinyl)-4-(p-tolyl)thiazole] | – | 8.6 ± 0.2 | 10.7 ± 0.2 | 1.24 | – | – | – | –
6 | Clc1ccc(-c2csc(N/N=C(/CSc3nc4ccccc4[nH]3)c3ccccc3)n2)cc1Cl [compound 6, (E)-2-(2-(2-((1H-benzo[d]imidazol-2-yl)thio)-1-phenylethylidene)hydrazinyl)-4-(3,4-dichlorophenyl)thiazole] | – | 0.7 ± 0.05 | 1.4 ± 0.05 | 2.0 | – | – | – | –
7 | Cc1ccc(/C(CSc2nc3ccccc3[nH]2)=N\Nc2nc(-c3ccccc3[N+](=O)[O-])cs2)cc1 [compound 7, (E)-2-(2-(2-((1H-benzo[d]imidazol-2-yl)thio)-1-(p-tolyl)ethylidene)hydrazinyl)-4-(2-nitrophenyl)thiazole] | – | 2.9 ± 0.1 | 3.5 ± 0.1 | 1.21 | – | – | – | –
8 | Cc1ccc(/C(CSc2nc3ccccc3[nH]2)=N\Nc2nc(-c3cccc([N+](=O)[O-])c3)cs2)cc1 [compound 8, (E)-2-(2-(2-((1H-benzo[d]imidazol-2-yl)thio)-1-(p-tolyl)ethylidene)hydrazinyl)-4-(3-nitrophenyl)thiazole] | – | 6.3 ± 0.1 | 7.9 ± 0.1 | 1.25 | – | – | – | –
9 | O=[N+]([O-])c1cc(O)c(Cl)cc1-c1csc(N/N=C(/CSc2nc3ccccc3[nH]2)c2cccc(O)c2[N+](=O)[O-])n1 [compound 9, (E)-4-(2-(2-(2-((1H-benzo[d]imidazol-2-yl)thio)-1-(3-hydroxy-2-nitrophenyl)ethylidene)hydrazinyl)thiazol-4-yl)-2-chloro-5-nitrophenol] | – | – | – | 2.46 | 1.3 ± 0.1 | 3.2 ± 0.1 | – | –
10 | CN(C)c1cc([N+](=O)[O-])c(-c2csc(N/N=C(/CSc3nc4ccccc4[nH]3)c3ccc(-c4ccccc4)cc3)n2)cc1O [compound 10, (E)-5-(2-(2-(2-((1H-benzo[d]imidazol-2-yl)thio)-1-([1,1’-biphenyl]-4-yl)ethylidene)hydrazinyl)thiazol-4-yl)-2-(dimethylamino)-4-nitrophenol] | – | – | – | – | – | – | inactivity | inactivity
11 | Cc1ccc(/C(CSc2nc3ccccc3[nH]2)=N\Nc2nc(-c3ccc(Cl)c(Cl)c3)cs2)cc1 [compound 11, (E)-2-(2-(2-((1H-benzo[d]imidazol-2-yl)thio)-1-(p-tolyl)ethylidene)hydrazinyl)-4-(3,4-dichlorophenyl)thiazole] | – | 0.4 ± 0.05 | 1.1 ± 0.1 | 2.75 | – | – | – | –
12 | Cc1ccc(/C(CSc2nc3ccccc3[nH]2)=N\Nc2nc(-c3cc(Cl)c(O)cc3[N+](=O)[O-])cs2)c([N+](=O)[O-])c1 [compound 12, (E)-4-(2-(2-(2-((1H-benzo[d]imidazol-2-yl)thio)-1-(4-methyl-2-nitrophenyl)ethylidene)hydrazinyl)thiazol-4-yl)-2-chloro-5-nitrophenol] | – | – | – | 1.5 | 1.4 ± 0.1 | 2.1 ± 0.1 | – | –
13 | Cc1ccc(-c2csc(N/N=C(/CSc3nc4ccccc4[nH]3)c3ccccc3[N+](=O)[O-])n2)cc1 [compound 13, (E)-2-(2-(2-((1H-benzo[d]imidazol-2-yl)thio)-1-(2-nitrophenyl)ethylidene) hydrazinyl)-4-(p-tolyl)thiazole] | – | 3.2 ± 0.1 | 5.1 ± 0.1 | 1.59 | – | – | – | –
14 | COc1cccc(-c2csc(N/N=C(/CSc3nc4ccccc4[nH]3)c3ccccc3[N+](=O)[O-])n2)c1 [compound 14, (E)-2-(2-(2-((1H-benzo[d]imidazol-2-yl)thio)-1-(2-nitrophenyl)ethylidene) hydrazinyl)-4-(3-methoxyphenyl)thiazole] | – | 3.1 ± 0.1 | 4.2 ± 0.1 | 1.35 | – | – | – | –
15 | O=[N+]([O-])c1ccccc1/C(CSc1nc2ccccc2[nH]1)=N\Nc1nc(-c2ccc(Cl)c(Cl)c2)cs1 [compound 15, (E)-2-(2-(2-((1H-benzo[d]imidazol-2-yl)thio)-1-(2-nitrophenyl)ethylidene) hydrazinyl)-4-(3,4-dichlorophenyl)thiazole] | – | 0.3 ± 0.05 | 0.7 ± 0.05 | 2.33 | – | – | – | –
16 | O=[N+]([O-])c1ccccc1/C(CSc1nc2ccccc2[nH]1)=N\Nc1nc(-c2ccc(O)cc2)cs1 [compound 16, (E)-4-(2-(2-(2-((1H-benzo[d]imidazol-2-yl)thio)-1-(2-nitrophenyl)ethylidene) hydrazinyl)thiazol-4-yl)phenol] | – | 0.2 ± 0.05 | 0.5 ± 0.05 | 2.5 | – | – | – | –
17 | O=[N+]([O-])c1ccccc1-c1csc(N/N=C(/CSc2nc3ccccc3[nH]2)c2ccc(Cl)c(Cl)c2)n1 [compound 17, (E)-2-(2-(2-((1H-benzo[d]imidazol-2-yl)thio)-1-(3,4-dichlorophenyl)ethylidene) hydrazinyl)-4-(2-nitrophenyl)thiazole] | – | 1.1 ± 0.05 | 1.8 ± 0.1 | 1.64 | – | – | – | –
18 | O=[N+]([O-])c1cccc(-c2csc(N/N=C(/CSc3nc4ccccc4[nH]3)c3ccc(Cl)c(Cl)c3)n2)c1 [compound 18, (E)-2-(2-(2-((1H-benzo[d]imidazol-2-yl)thio)-1-(3,4-dichlorophenyl)ethylidene) hydrazinyl)-4-(3-nitrophenyl)thiazole] | – | 0.7 ± 0.05 | 1.2 ± 0.1 | 1.71 | – | – | – | –
19 | Cc1ccc(-c2csc(N/N=C(/CSc3nc4ccccc4[nH]3)c3ccc(Cl)c(Cl)c3)n2)cc1 [compound 19, (E)-2-(2-(2-((1H-benzo[d]imidazol-2-yl)thio)-1-(3,4-dichlorophenyl)ethylidene) hydrazinyl)-4-(p-tolyl)thiazole] | – | 1.4 ± 0.1 | 1.3 ± 0.1 | 0.92 | – | – | – | –
20 | COc1cccc(-c2csc(N/N=C(/CSc3nc4ccccc4[nH]3)c3ccc(Cl)c(Cl)c3)n2)c1 [compound 20, (E)-2-(2-(2-((1H-benzo[d]imidazol-2-yl)thio)-1-(3,4-dichlorophenyl)ethylidene) hydrazinyl)-4-(3-methoxyphenyl)thiazole] | – | 1.2 ± 0.1 | 1.9 ± 0.1 | 1.58 | – | – | – | –
21 | Clc1ccc(/C(CSc2nc3ccccc3[nH]2)=N\Nc2nc(-c3ccc(Cl)c(Cl)c3)cs2)cc1Cl [compound 21, (E)-2-(2-(2-((1H-benzo[d]imidazol-2-yl)thio)-1-(3,4-dichlorophenyl)ethylidene) hydrazinyl)-4-(3,4-dichlorophenyl)thiazole] | – | 0.1 ± 0.05 | 0.2 ± 0.05 | 2.0 | – | – | – | –
22 | COc1ccccc1-c1csc(N/N=C(/CSc2nc3ccccc3[nH]2)c2ccc(Cl)c(Cl)c2)n1 [compound 22, (E)-2-(2-(2-((1H-benzo[d]imidazol-2-yl)thio)-1-(3,4-dichlorophenyl)ethylidene) hydrazinyl)-4-(2-methoxyphenyl)thiazole] | – | 0.4 ± 0.2 | 0.7 ± 0.1 | 1.75 | – | – | – | –
23 | Clc1ccc(/C(CSc2nc3ccccc3[nH]2)=N\Nc2nc(-c3ccc(Br)cc3)cs2)cc1Cl [compound 23, (E)-2-(2-(2-((1H-benzo[d]imidazol-2-yl)thio)-1-(3,4-dichlorophenyl)ethylidene) hydrazinyl)-4-(4-bromophenyl)thiazole] | – | 4.7 ± 0.1 | 6.7 ± 0.1 | 1.43 | – | – | – | –
24 | Cc1ccc(/C(CSc2nc3ccccc3[nH]2)=N\Nc2nc(-c3ccc(C)cc3)cs2)cc1 [compound 24, (E)-2-(2-(2-((1H-benzo[d]imidazol-2-yl)thio)-1-(p-tolyl)ethylidene)hydrazinyl)-4-(p-tolyl)thiazole] | – | 11.1 ± 0.3 | 14.2 ± 0.1 | 1.28 | – | – | – | –
